Measured values as given in PubChem BioAssay AID256 (DTP/NCI, 2004).
Several values for one entry are separate records, joined by “and”; a condition that tells them apart may be missing. Equal values may be shown once. Toxic doses and inconclusive results are not listed. The calls were made as follows: active = survival T/C of 150% or more; inactive = T/C below 125% in these data.

System: CD2F1 mice, L1210 leukemia ip, survival T/C
Experiment: NCI In Vivo Anticancer Drug Screen. Data for tumor model L1210 Leukemia (intraperitoneal) in CD2F1 (CDF1) mice
Details: endpoint: mean survival time, vehicle: saline, higher = longer survival
How it was run: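 Activity against a transplanted murine tumor was judged by comparing the compound group with a vehicle group. The outcome in the treated animals was divided by that in the controls.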

Measured: T/C

C/C(=N\N=C(N)N)c1ccc(NC(=O)Nc2ccc(/C(C)=N/N=C(N)N)cc2)cc1
active: dose: 25.0 mg/kg/injection, schedule: Q01DX005 (ip) 155 % of control | dose: 25.0 mg/kg/injection, schedule: Q01DX009 (ip) 155 % of control | dose: 50.0 mg/kg/injection, schedule: Q01DX005 (ip) 185 % of control | dose: 50.0 mg/kg/injection, schedule: Q01DX007 (ip) 152 % of control | dose: 50.0 mg/kg/injection, schedule: Q01DX009 (ip) 154 % of control and 188 % of control | dose: 100.0 mg/kg/injection, schedule: Q01DX005 (ip) 223 % of control | dose: 100.0 mg/kg/injection, schedule: Q01DX007 (ip) 225 % of control | dose: 100.0 mg/kg/injection, schedule: Q01DX009 (ip) 250 % of control and 314 % of control | dose: 100.0 mg/kg/injection, schedule: Q03DX003 (ip) 154 % of control | dose: 100.0 mg/kg/injection, schedule: Q04DX003 (ip) 163 % of control | dose: 100.0 mg/kg/injection, schedule: Q## X024 (ip) 160 % of control | dose: 200.0 mg/kg/injection, schedule: Q01DX001 (ip) 155 % of control | dose: 200.0 mg/kg/injection, schedule: Q01DX009 (ip) 217 % of control | dose: 200.0 mg/kg/injection, schedule: Q03DX003 (ip) 186 % of control | dose: 200.0 mg/kg/injection, schedule: Q03HX008 (ip) 152 % of control | dose: 200.0 mg/kg/injection, schedule: Q04DX003 (ip) 156 % of control and 200 % of control | dose: 200.0 mg/kg/injection, schedule: Q08DX002 (ip) 172 % of control | dose: 200.0 mg/kg/injection, schedule: Q## X016 (ip) 198 % of control | dose: 200.0 mg/kg/injection, schedule: Q## X024 (ip) 230 % of control | dose: 400.0 mg/kg/injection, schedule: Q01DX001 (ip) 180 % of control | dose: 400.0 mg/kg/injection, schedule: Q03HX008 (ip) 179 % of control | dose: 400.0 mg/kg/injection, schedule: Q04DX003 (ip) 325 % of control | dose: 400.0 mg/kg/injection, schedule: Q08DX002 (ip) 225 % of control | dose: 400.0 mg/kg/injection, schedule: Q## X016 (ip) 284 % of control | dose: 400.0 mg/kg/injection, schedule: Q## X024 (ip) 374 % of control | dose: 800.0 mg/kg/injection, schedule: Q01DX001 (ip) 206 % of control | dose: 800.0 mg/kg/injection, schedule: Q04DX003 (ip) 294 % of control | dose: 800.0 mg/kg/injection, schedule: Q08DX002 (ip) 217 % of control | dose: 800.0 mg/kg/injection, schedule: Q## X016 (ip) 235 % of control
inactive: dose: 25.0 mg/kg/injection, schedule: Q01DX009 (sc) 101 % of control | dose: 50.0 mg/kg/injection, schedule: Q01DX009 (sc) 107 % of control | dose: 100.0 mg/kg/injection, schedule: Q01DX001 (sc) 101 % of control | dose: 100.0 mg/kg/injection, schedule: Q01DX009 (oral) 98 % of control | dose: 100.0 mg/kg/injection, schedule: Q01DX009 (sc) 102 % of control | dose: 200.0 mg/kg/injection, schedule: Q01DX001 (oral) 103 % of control | dose: 200.0 mg/kg/injection, schedule: Q01DX001 (sc) 102 % of control | dose: 200.0 mg/kg/injection, schedule: Q01DX007 (ip) 90 % of control | dose: 200.0 mg/kg/injection, schedule: Q01DX009 (oral) 88 % of control | dose: 200.0 mg/kg/injection, schedule: Q01DX009 (sc) 119 % of control | dose: 400.0 mg/kg/injection, schedule: Q01DX001 (oral) 101 % of control | dose: 400.0 mg/kg/injection, schedule: Q01DX001 (sc) 105 % of control | dose: 400.0 mg/kg/injection, schedule: Q01DX009 (oral) 116 % of control | dose: 800.0 mg/kg/injection, schedule: Q01DX001 (oral) 102 % of control | dose: 800.0 mg/kg/injection, schedule: Q01DX001 (sc) 105 % of control | dose: 800.0 mg/kg/injection, schedule: Q01DX009 (oral) 98 % of control | dose: 1600.0 mg/kg/injection, schedule: Q01DX001 (oral) 102 % of control
